Test results: US6316182A, “Detection of reverse transcriptase by DNA hybridization assay” (priority 1992, dated 2001)
Where “and” joins values, the source holds several entries; their conditions need not be identical. Identical values can stand only once. Like-named read-outs stand apart in the source and are kept apart here.

Experiments:
[1] = system: HIV-1 reverse transcriptase with codon 215 and/or codon 219 substitution; conditions: phenylalanine or tyrosine for threonine at codon 215, and/or glutamine for lysine at codon 219; cited from earlier work
[2] = system: triple mutant RT (74/215/219); assay: Heteropolymeric RNA template RT hybridization assay, inhibition of triple mutant RT 74/215/219 (Example 2); format: biochemical, HIV-1; conditions: 74/215/219 mutant RT; single determinations; read-out: IC50 (multiple determinations)
Method: (§1) In this example, RT was obtained from E. coli expression systems as described below and was added to each tube in sufficient amount to give a significant signal (about 1-2 absorbance units) in the absence of drug. The same amount of RT was added to each tube. Both a wild-type and a codon 74 (ddI-resistant) mutant RT were tested. Molecular clones were constructed by site-directed mutagenesis to contain a mutation at codon 74, 215, and/or 219. Mutants at codon 74 are resistant to ddI. Wild-type and mutant RT genes of these clones were subcloned into a bacterial expression vector (pKRT2). Bacterial lysates containing recombinant expressed RT, both wild-type and mutant, were made as previously described (D'Aquila, R. T. and Summers, W. C. (1989) JAIDS 2:579-587). The IC50 was determined by computerized estimation (Systat version 5.1) of the median-effect equation: fractional reduction=1/[1+(IC50/drug concentration)^m ]. Each IC50 is the mean of 5-10 experiments. Results of a one-tailed Mann-Whitney U test for the difference between mean wild-type and mutant IC50s: p<0.005.
(§2) An amount of ddATP (the active form of ddI) varying from 0.0005 to 0.250 mM was added to various tubes containing 40 μL of the following solution:
(§3) In this example, the dNTP concentrations were the same as described in Example 1 above.
(§4) These tubes were incubated at 37° C. for 1 hour to allow the synthesis of cDNA. […]

wild-type RT = biological target: T1, wild-type RT (Human immunodeficiency virus type 1 group M subtype B, UniProt P04585); assay: Heteropolymeric RNA template RT hybridization assay, inhibition of wild-type RT (Example 2); format: biochemical, HIV-1
T1 construct: Wild-type and mutant RT genes of these clones were subcloned into a bacterial expression vector (pKRT2); made in house; host or cells: E. coli
Method: (§5) A template RNA was synthesized by in vitro transcription from linearized pSP72 plasmid DNA by performing the following steps:
(§6) 2. In vitro transcription with T7 RNA polymerase was performed by 2 hour incubation at 37° C. of a solution containing 50 μg/mL of the linearized DNA, 400 units/mL T7 RNA polymerase, 40 mM Tris-HCl buffer, pH 8.0, 6 mM MgCl2, 2 mM spermidine, 10 mM NaCl, 10 mM DTT, 0.5 mM rATP, 0.5 mM rGTP, 0.5 mM rCTP and 0.5 mM rUTP.
(§7) The following DNA oligonucleotide was synthesized on a DNA synthesizer employing standard methods:
(§8) The following probe oligonucleotides were synthesized on a DNA synthesizer and conjugated with biotin or horseradish peroxidase (HRP) employing standard methods.
(§9) 1. 10 μL of 1 N KOH was added to each tube and incubated at 37° C. for 15 minutes to hydrolyze the RNA.
(§10) 2. 10 μL of 1 N KH2 PO4 was added to each tube to neutralize the pH and […] of solution from each tube was transferred to a well of a streptavidin-coated microplate.
(§11) 3. 50 μL of the following solution was added to each well:
(§12) 4. The wells were covered with an adhesive plate cover and incubated at 37° C. for 2 hours.
(§13) 6. 100 μL of tetramethylbenzidine (TMB, SOMA) was added to each well and incubated for 1 hour at room temperature.
(§14) 7. 100 μL of TMB Stop Solution (SOMA) was added to each well and the absorbance (450 nm-650 nm) of the wells was read with a plate reader.
as §1, §2, §3, §4

[3] = biological target: T2, codon 74 (ddI-resistant) mutant RT (Human immunodeficiency virus type 1 group M subtype B, UniProt P04585, L661V); assay: Heteropolymeric RNA template RT hybridization assay, inhibition of codon 74 mutant RT (Example 2); format: biochemical, HIV-1
T2 construct: Wild-type and mutant RT genes of these clones were subcloned into a bacterial expression vector (pKRT2); made in house; host or cells: E. coli
Method: as §5, §6, §7, §8, §9, §10, §11, §12, §13, §14, §1, §2, §3, §4

AMV RT = assay: Heteropolymeric RNA template RT hybridization assay, inhibition of AMV RT (Example 3); format: biochemical, avian myeloblastosis virus; conditions: for Absorbance (450 nm-650 nm): no-drug absorbance 3.760
Method: as §9, §10, §11, §12, §13, §14
Same as described in Example 1 above.
AMV RT (Du Pont) was used as a model to illustrate use of the method of the present invention for detecting and/or quantitating the ability of a compound to inhibit RT activity. AMV RT was added to give tubes containing 40 μL of the following solution:
These reaction conditions were similar to those of Example 1 above except with respect to the addition of the inhibitor, the lower dNTP concentration (0.001 mM instead of 0.5 mM) and the increased amount of RT (200 mU instead of 5 mU). Reducing the dNTPs decreases the signal in the assay, but increasing the RT increases the signal. The reduced dNTP concentration helps to make the assay more sensitive to inhibitors which act competitively with the dNTPs and, thus, less inhibitor is needed to achieve the effect. By adding more inhibitor, the same results can be obtained at higher dNTP concentrations.
The tubes were incubated at 37° C. for 1 hour to allow the synthesis of cDNA.
Same as for Example 1 described above.

[4] = system: HIV-1 reverse transcriptase with valine for leucine at codon 74; conditions: valine for the wild-type leucine at codon 74; cited from earlier work

Cc1cn([C@H]2C[C@H](N=[N+]=[N-])[C@@H](CO)O2)c(=O)[nH]c1=O [AZT, zidovudine]
resistance of the RT to the drug [1]: leads to resistance to AZT

Nc1ncnc2c1ncn2[C@H]1CC[C@@H](COP(=O)(O)OP(=O)(O)OP(=O)(O)O)O1 [ddATP]
IC50 [2]: 79.3 µM
IC50 (wild-type RT; 10 cases, 0.5 mM dNTPs, read-out: Maximum (IC50)): 8.7 µM
IC50 (wild-type RT; 10 cases, 0.5 mM dNTPs, read-out: Minimum (IC50)): 3.1 µM
IC50 (wild-type RT; mean of 10 cases, 0.5 mM dNTPs, wild-type vs mutant p<0.005, read-out: Mean (IC50)): 6.79 µM
IC50 (wild-type RT; single determinations, read-out: IC50 (multiple determinations)): 8.6 µM and 6.7 µM and 7.8 µM and 4.9 µM and 5.7 µM
IC50 ([3]; 74 mutant RT, single determinations, read-out: IC50 (multiple determinations)): 13.2 µM and 16.6 µM and 13.4 µM
IC50 ([3]; Mutant 74 RT, 5 cases, 0.5 mM dNTPs, read-out: Maximum (IC50)): 29.4 µM
IC50 ([3]; Mutant 74 RT, 5 cases, 0.5 mM dNTPs, read-out: Minimum (IC50)): 11.1 µM
IC50 ([3]; Mutant 74 RT, mean of 5 cases, 0.5 mM dNTPs, wild-type vs mutant p<0.005, read-out: Mean (IC50)): 16.9 µM
Absorbance (450 nm-650 nm) (AMV RT; ddATP 0.0001 mM): 3.593
Absorbance (450 nm-650 nm) (AMV RT; ddATP 0.00025 mM): 2.984
Absorbance (450 nm-650 nm) (AMV RT; ddATP 0.0005 mM): 2.079
Absorbance (450 nm-650 nm) (AMV RT; ddATP 0.0010 mM): 1.365
Absorbance (450 nm-650 nm) (AMV RT; ddATP 0.0025 mM): 0.350
Absorbance (450 nm-650 nm) (AMV RT; ddATP 0.0050 mM): 0.197
Absorbance (450 nm-650 nm) (AMV RT; ddATP 0.0100 mM): 0.224

O=c1[nH]cnc2c1ncn2[C@H]1CC[C@@H](CO)O1 [ddI]
resistance of the RT to the drug [4]: leads to ddI resistance

O=C(O)P(=O)(O)O [fosgarnet]
inhibition detected and/or quantitated (AMV RT; similar experiment, non-nucleoside RT inhibitor): could also be detected and/or quantitated
